Series [1] in a line: Partition coefficient, log P of the compound. In kind it is physicochemical. The note with it: octanol/water.
The subject of series [2] is Aedes atropalpus. Put plainly: Toxicity in second-instar Aedes atropalpus in pupal stage assessed as growth. In kind it is functional, organism-based.
For series [3], the system named is Aedes atropalpus. Put plainly: Toxicity in second-instar Aedes atropalpus in adult stage assessed as growth. In kind it is functional, organism-based.
Series [4] relates to Aedes atropalpus. Put plainly: Toxicity in second-instar Aedes atropalpus larvae at 10 ppm after 24 hrs. Format: functional, organism-based.
The test system of series [5] is Aedes atropalpus. Put plainly: Toxicity in second-instar Aedes atropalpus larvae at 100 ppm after 24 hrs. Format: functional, organism-based.

Activity calls are given as the source filed them. The calls are words filed in the database; no cut-off is given here.

As for `C=C1C(=O)O[C@@H]2[C@H]1CC[C@H](C)[C@@H]1[C@H](O)CC(=O)[C@]12C` [BIPINNATIN], the lipophilicity (logP) (commonly a log measure of how a compound divides between an organic and an aqueous phase) in series [1] worked out at 1.62. Besides, the outcome in the series on Aedes atropalpus [2] and in the series on Aedes atropalpus [3] was Active.

As for `C=C1C(=O)O[C@@H]2[C@H]1CC[C@H](C)[C@]1(O)CCC(=O)[C@@]21C` [CORONOPILIN], the log partition coefficient (logP) in series [1] was 1.42. Moreover, the result in the series with Aedes atropalpus [2] and with Aedes atropalpus [3] was Active.

`C=C1C(=O)O[C@@H]2C[C@@]3(C)CCC[C@H](C)C3=C[C@H]12` [HELENINE] had a logP in series [1] of 3.38. In addition, the result with Aedes atropalpus [2], in the series with Aedes atropalpus [3], in the series with Aedes atropalpus [4] and in the series on Aedes atropalpus [5] was Active.

In series [1], `C[C@H]1C(=O)O[C@@H]2[C@H]1CC[C@H](C)[C@]1(O)C=CC(=O)[C@@]21C` [HYMENOLIN] returned a log partition coefficient (logP) of 1.7. Moreover, the result with Aedes atropalpus [2] and in the series with Aedes atropalpus [3] was Active.

In series [1], `C=C1C(=O)O[C@@H]2C[C@@]3(C)CCCC(=C)[C@@H]3C[C@H]12` [ISOALANTOLACTONE] yielded a logP of 3.42. In addition, the result in the series on Aedes atropalpus [2], in the series with Aedes atropalpus [3], in the series with Aedes atropalpus [4] and in the series on Aedes atropalpus [5] was Active.

Compound `C=C1C(=O)O[C@@H]2[C@H]1CC[C@H](C)[C@]1(O)C=CC(=O)[C@@]21C` [PARTHENIN] registered a lipophilicity (logP) in series [1] of 1.37. The result in the series with Aedes atropalpus [2], in the series on Aedes atropalpus [3], with Aedes atropalpus [4] and in the series on Aedes atropalpus [5] was Active.

The values are drawn from ChEMBL document CHEMBL1151659, “Effects of Sesquiterpene Lactones on Development of Aedes atropalpus and Relation to Partition Coefficient” (J Nat Prod, 1985).
